Paper PMC11304383 (Molecular Pharmaceutics, 2024)
Values after ≈ are worked out from the molar mass of the structure shown. Where two headings read alike, the source gives them in different places.

What was measured:
[1] = Oral pharmacokinetic study; assay type: in vivo, male Wistar rats; conditions: single oral dose 15 mg/kg
Procedure: Pharmacokinetic studies were conducted by following the CPCSEA guidelines. MAHE-IAEC (IAEC/KMC/24/2020) approved the study. The study utilized a parallel design, with each group comprising 3 male Wistar rats weighing approximately 200 g, with a variation of ±20 g. Prior to treatment, the rats underwent a 12 h fasting period but were allowed access to water. Treatment A involved administering a dose of 15 mg/kg of CRT, suspended in a 0.5% (w/v) carboxyl methyl cellulose (CMC) aqueous solution. Treatment B consisted of a 15 mg/kg equivalent CRT CAMs suspension prepared in a 0.5% (w/v) CMC vehicle. The animals received 1 mL of the suspension orally via oral gavage. The interested readers are directed to the pharmacokinetic study reported by Yarlagadda et al. (2023) for detailed methodology.[38]

CYP3A = system: CYP3A; parameters: method as in PMID 33394101; conditions: 33 adult NSCLC patients; cited from earlier work
CYP2C9 = system: CYP2C9; parameters: method as in PMID 33394101; conditions: 33 adult NSCLC patients; cited from earlier work
[2] = Amorphous solubility, solvent quench method; assay type: physicochemical; conditions: higher in distilled water
Procedure: The amorphous solubility of CRT was measured using the solvent quench method, which employed methanol and HPMC as the solvent and crystallization inhibitor, respectively. […] The detailed amorphous solubility methodology can be found in Shete et al. (2021).[39]

A549 cells [3] = experiment: Cell cycle analysis by flow cytometry (propidium iodide); assay type: cell-based, human; conditions: individual IC50 concentrations, 48 h
Procedure: Exponentially growing cells were detached from T-25 cell culture flasks using trypsin and then transferred to sterile Petri plates. The cells were allowed to attach and grow for approximately 24 h. After the attachment period, different treatments were applied to the cells, and the plates were further incubated for 48 h. The media was removed after 48 h of incubation, and the plates were rinsed two times with phosphate buffer. After that, the cells were trypsinized and centrifuged at 4 °C. After centrifugation, the pellet was fixed in 70% ice-cold ethanol for 30 min at 4 °C. The resulting pellet was resuspended in Dulbecco’s phosphate-buffered saline (PBS) to wash the cells. After another round of centrifugation, the supernatant was removed and the pellet was redispersed in a staining solution consisting RNase, propidium iodide, and NP-40. For 20 min, the cell suspension was incubated in the dark at room temperature. The cells were then analyzed with a BD Accuri C6 flow cytometer (BD Biosciences, San Jose, CA, USA).[42]

[4] = Thermodynamic solubility, shake flask method; assay type: physicochemical; conditions: phosphate buffer 50 mM pH 6.8, 24 h, 37 °C; read-out: thermodynamic solubility of CRT
Procedure: Excess amounts of CRT and CAMs were added to solubility vials (2 mL) containing the buffer. These vials were then subjected to agitation on an orbital shaker for 24 h at 37 °C and 120 rpm. After this incubation period, the pH of the samples was checked and adjusted if necessary just before centrifugation. Centrifugation was carried out at 37 °C, 10,000 rpm, for 10 min, trailed by the collection of the supernatant and its dilution using the mobile phase. The samples were then analyzed by using the HPLC method described below. This experimental procedure was conducted in triplicate (n = 3).
The Shimadzu Prominence UHPLC with a UV detector was used for the analysis. A GraceSmart Brava BDS-C18 column (250 mm × 4.6 mm × 5 μm) was used for chromatographic separation. The mobile phase was given in a gradient manner with 42:50:8% v/v methanol:25 mM phosphate buffer pH 3.0:ACN for 5 min and 50:50% v/v acetonitrile:25 mM phosphate buffer pH 3.0 for 17 min at a flow rate of 1 mL/min.

[5] = parameters: method as in doi:10.1021/acs.cgd.7b01027; conditions: cited from earlier work
A549 cells [6] = experiment: SRB (sulforhodamine B) cytotoxicity assay; assay type: cell-based; conditions: Homo sapiens, read-out: IC50 value
Procedure: A cell suspension was made based on cell count, and 5000 cells were seeded per well in a 96-well plate. […] The SRB assay was performed after a 48 h incubation […], and the absorbance at 540 nm was determined using a plate reader.[40]

P-gp = system: P-gp; parameters: method as in doi:10.1016/j.jddst.2022.103431; conditions: read-out: IC50 value of NRG for P-gp inhibition; cited from earlier work
[7] = parameters: method as in doi:10.1007/s12247-019-09381-9; conditions: cited from earlier work
[8] = male, Wistar, rat, plasma, n = 3

SMILES	Cmax ([1]; male, Wistar, rat, plasma, po, 15 mg/kg, n = 3, read-out: Cmax of CRT)	MRT [1, 8]	Tmax [1, 8]	half-life [1, 8]	AUC(0-t) ([1]; male, Wistar, rat, plasma, n = 3, 72 h, read-out: AUC0–t of CRT)	Cmax of CRT ([1]; n = 3, 15 mg/kg)	enhancement of AUC of midazolam by CRT versus midazolam alone (CYP3A)	enhancement of Cmax of midazolam by CRT versus midazolam alone (CYP3A)	improvement of AUC of S-warfarin by CRT (CYP2C9)	amorphous solubility of CRT, distilled water versus pH 6.8 phosphate buffer [2]	%G1 (percentage of cells in G0/G1 phase) (A549 cells [3])	%G2 (percentage of cells in G2/M phase) (A549 cells [3])	solubility thermodynamic at 24 h [4]	excess enthalpy of CRT in water [5]	IC50 (A549 cells [6]; A549, 48 h)	IC50 (P-gp)	IC50 (A549 cells [6]; A549, SRB, 48 h incubation)	glass transition event temperature [7]
Cc1cc(Nc2ncc(Cl)c(Nc3ccccc3S(=O)(=O)C(C)C)n2)c(OC(C)C)cc1C1CCNCC1 [CRT, ceritinib]	173 ng/mL	20.2 ± 0.75 h	6 h	22.1 h	3580 ± 218 ng·h/mL	173.26 ± 5.34 ng/mL	5.42 fold	1.82 fold	56%	approximately threefold	47.1%	23.9%	3.3 µg/mL (≈ 5.91 µM)	-0.844 kcal/mol	3.53 µM	–	–	–
C[C@@H]1O[C@@H](O[C@H]2[C@H](Oc3cc(O)c4c(c3)O[C@H](c3ccc(O)cc3)CC4=O)O[C@H](CO)[C@@H](O)[C@@H]2O)[C@H](O)[C@H](O)[C@H]1O [NRG, naringin]	–	–	–	–	–	–	–	–	–	–	–	–	–	–	–	2400 µM	162 µM	167 °C
